Results: patent US10178865B2, “Insect repellent” (priority 2013, dated 2019)

Tested on: Red imported fire ant (Solenopsis invicta)
Assay: Fire ant repellency, honey plates near mounds (Example 6)
Format: in vivo
Conditions: separate trial; about 100 mg per plate; within 4 feet of mounds
Excerpt: Formulation A was poured into a plastic spray bottle and was sprayed onto 20 eight inch paper plates, one squeeze of the pump trigger per plate. […] Ten treated plates were placed randomly on the ground on a farm in Sparks, Ga., USA and ten control (untreated) plates were placed on the ground about 3 feet from the treated plates. Ten treated plates were placed about 4 feet from active Red imported fire ant mounds and ten control plates were placed near the same mounds no closer than 3 feet from the treated plates. Each plate received approximately 15 mL of an aqueous 25% honey solution.
Fifty percent of the control plates had active fire ant feeding within 15 minutes and 100% of the control plates had active fire ant feeding within 30 minutes.

With COC(=O)c1ccccc1N [methyl anthranilate] the “deterrence of fire ant feeding” value was “did not deter fire ants from feeding”.
